Literature values, collected in PubChem BioAssay AID1259409 (Chemical Carcinogenesis Research Information System (CCRIS), 2018).

Test system: rodent chemically induced tumor inhibition, incidence and multiplicity
Assay: CCRIS tumor inhibitor studies
Conditions: Dose [Inhibitor]: 0, Route [Inhibitor]: ORAL

Oc1ccccc1O
tumour outcome (control, treated, inhibition, significance) (Carcinogen: N-BIS(2-HYDROXYPROPYL)NITROSAMINE, 53609-64-6, 0.8% IN DIET FOR 30 WK BEGINNING POST CARCINOGEN TREATMENT (STUDY DURATION: 32 WK), Species: RAT, Strain/Sex: F344/MALE, Target Tissue: Type of Lesion: KIDNEY: PAPILLOMA OR TRANSITIONAL CELL CARCINOMA, Dose [Carcinogen]: 0.1% IN DRINKING WATER FOR 2 WK, Promoter: NONE USED): 10%, 10%, 0%, not significant | tumour outcome (control, treated, inhibition, significance) (Carcinogen: N-BIS(2-HYDROXYPROPYL)NITROSAMINE, 53609-64-6, 0.8% IN DIET FOR 30 WK BEGINNING POST CARCINOGEN TREATMENT (STUDY DURATION: 32 WK), Species: RAT, Strain/Sex: F344/MALE, Target Tissue: Type of Lesion: LUNG: ADENOMA, Dose [Carcinogen]: 0.1% IN DRINKING WATER FOR 2 WK, Promoter: NONE USED): 100%, 95%, 5%, not calculated | tumour outcome (control, treated, inhibition, significance) (Carcinogen: N-BIS(2-HYDROXYPROPYL)NITROSAMINE, 53609-64-6, 0.8% IN DIET FOR 30 WK BEGINNING POST CARCINOGEN TREATMENT (STUDY DURATION: 32 WK), Species: RAT, Strain/Sex: F344/MALE, Target Tissue: Type of Lesion: LUNG: CARCINOMA, Dose [Carcinogen]: 0.1% IN DRINKING WATER FOR 2 WK, Promoter: NONE USED): 45%, 20%, 56%, not calculated | outcome (Carcinogen: N-BIS(2-HYDROXYPROPYL)NITROSAMINE, 53609-64-6, 0.8% IN DIET FOR 30 WK BEGINNING POST CARCINOGEN TREATMENT (STUDY DURATION: 32 WK), Species: RAT, Strain/Sex: F344/MALE, Target Tissue: Type of Lesion: THYROID: ADENOMA, Dose [Carcinogen]: 0.1% IN DRINKING WATER FOR 2 WK, Promoter: NONE USED): 5%, 5%, 0, not significant | tumour outcome (control, treated, inhibition, significance) (Carcinogen: N-BIS(2-HYDROXYPROPYL)NITROSAMINE, 53609-64-6, 0.8% IN DIET FOR 30 WK BEGINNING POST CARCINOGEN TREATMENT (STUDY DURATION: 32 WK), Species: RAT, Strain/Sex: F344/MALE, Target Tissue: Type of Lesion: THYROID: CARCINOMA, Dose [Carcinogen]: 0.1% IN DRINKING WATER FOR 2 WK, Promoter: NONE USED): 20%, 5%, 75%, not calculated | tumour outcome (control, treated, inhibition, significance) (Carcinogen: N-NITROSOBIS(2-OXOPROPYL)AMINE, 60599-38-4, 0.75% IN DIET FOR 16 WK BEGINNING 2 WK POST CARCINOGEN TREATMENT (STUDY DURATION: 20 WK), Species: HAMSTER, Strain/Sex: SYRIAN/FEMALE, Target Tissue: Type of Lesion: GALL BLADDER: ADENOMA, Dose [Carcinogen]: 70 MG/KG IN SALINE FOLLOWED 2 WK LATER BY SECOND TREATMENT): 9/18 (50%), 7/10 (70%), -40%, not calculated | tumour outcome (control, treated, inhibition, significance) (Carcinogen: N-NITROSOBIS(2-OXOPROPYL)AMINE, 60599-38-4, 0.75% IN DIET FOR 16 WK BEGINNING 2 WK POST CARCINOGEN TREATMENT (STUDY DURATION: 20 WK), Species: HAMSTER, Strain/Sex: SYRIAN/FEMALE, Target Tissue: Type of Lesion: LIVER: CHOLANGIOCARCINOMA, Dose [Carcinogen]: 70 MG/KG IN SALINE FOLLOWED 2 WK LATER BY SECOND TREATMENT): 16/18 (89%), 8/10 (80%), 10%, not calculated | tumour outcome (control, treated, inhibition, significance) (Carcinogen: N-NITROSOBIS(2-OXOPROPYL)AMINE, 60599-38-4, 0.75% IN DIET FOR 16 WK BEGINNING 2 WK POST CARCINOGEN TREATMENT (STUDY DURATION: 20 WK), Species: HAMSTER, Strain/Sex: SYRIAN/FEMALE, Target Tissue: Type of Lesion: LIVER: NEOPLASTIC NODULE, Dose [Carcinogen]: 70 MG/KG IN SALINE FOLLOWED 2 WK LATER BY SECOND TREATMENT): 18/18 (100%), 10/10 (100%), 0%, not significant | tumour outcome (control, treated, inhibition, significance) (Carcinogen: N-NITROSOBIS(2-OXOPROPYL)AMINE, 60599-38-4, 0.75% IN DIET FOR 16 WK BEGINNING 2 WK POST CARCINOGEN TREATMENT (STUDY DURATION: 20 WK), Species: HAMSTER, Strain/Sex: SYRIAN/FEMALE, Target Tissue: Type of Lesion: PANCREAS: ADENOCARCINOMA, Dose [Carcinogen]: 70 MG/KG IN SALINE FOLLOWED 2 WK BY SECOND TREATMENT): 14/18 (78%), 6/10 (60%), 23%, not calculated | tumour outcome (control, treated, inhibition, significance) (Carcinogen: N-NITROSOBIS(2-OXOPROPYL)AMINE, 60599-38-4, 1.5% IN DIET FOR 16 WK BEGINNING 2 WK POST CARCINOGEN TREATMENT (STUDY DURATION: 20 WK), Species: HAMSTER, Strain/Sex: SYRIAN/FEMALE, Target Tissue: Type of Lesion: GALL BLADDER: ADENOMA, Dose [Carcinogen]: 70 MG/KG IN SALINE FOLLOWED 2 WK LATER BY SECOND TREATMENT): 9/18 (50%), 10/17 (59%), -18%, not calculated | tumour outcome (control, treated, inhibition, significance) (Carcinogen: N-NITROSOBIS(2-OXOPROPYL)AMINE, 60599-38-4, 1.5% IN DIET FOR 16 WK BEGINNING 2 WK POST CARCINOGEN TREATMENT (STUDY DURATION: 20 WK), Species: HAMSTER, Strain/Sex: SYRIAN/FEMALE, Target Tissue: Type of Lesion: GALL BLADDER: CARCINOMA, Dose [Carcinogen]: 70 MG/KG IN SALINE FOLLOWED 2 WK LATER BY SECOND TREATMENT): 1/18 (6%), 2/17 (12%), -100%, not calculated | tumour outcome (control, treated, inhibition, significance) (Carcinogen: N-NITROSOBIS(2-OXOPROPYL)AMINE, 60599-38-4, 1.5% IN DIET FOR 16 WK BEGINNING 2 WK POST CARCINOGEN TREATMENT (STUDY DURATION: 20 WK), Species: HAMSTER, Strain/Sex: SYRIAN/FEMALE, Target Tissue: Type of Lesion: LIVER: CHOLANGIOCARCINOMA, Dose [Carcinogen]: 70 MG/KG IN SALINE FOLLOWED 2 WK LATER BY SECOND TREATMENT): 16/18 (89%), 11/17 (65%), 27%, not calculated | tumour outcome (control, treated, inhibition, significance) (Carcinogen: N-NITROSOBIS(2-OXOPROPYL)AMINE, 60599-38-4, 1.5% IN DIET FOR 16 WK BEGINNING 2 WK POST CARCINOGEN TREATMENT (STUDY DURATION: 20 WK), Species: HAMSTER, Strain/Sex: SYRIAN/FEMALE, Target Tissue: Type of Lesion: LIVER: NEOPLASTIC NODULE, Dose [Carcinogen]: 70 MG/KG IN SALINE FOLLOWED 2 WK LATER BY SECOND TREATMENT): 100%, 100%, 0%, not significant | tumour outcome (control, treated, inhibition, significance) (Carcinogen: N-NITROSOBIS(2-OXOPROPYL)AMINE, 60599-38-4, 1.5% IN DIET FOR 16 WK BEGINNING 2 WK POST CARCINOGEN TREATMENT (STUDY DURATION: 20 WK), Species: HAMSTER, Strain/Sex: SYRIAN/FEMALE, Target Tissue: Type of Lesion: PANCREAS: ADENOCARCINOMA, Dose [Carcinogen]: 70 MG/KG IN SALINE FOLLOWED 2 WK LATER BY SECOND TREATMENT): 14/18 (78%), 13/17 (76%), 3%, not calculated
